Reference: patent publication US5173486A, “Dibenz[b,f][1,4]oxazepin-11(10H)-ones for multidrug resistance reversing agents” (Bristol-Myers Squibb Company, priority 1991, dated 1992)
Several values for one entry are separate records, joined by “and”; a condition that tells them apart may be missing. Equal entries are not always repeated. Where two headings read alike, the source gives them in different places. *1 amine or outer side, *2 acyl side, *3 side chain or, on linkers, in order; H or OH if unused. Where a SMILES comes first, the peptide text is derived from it. Bridges are numbered along the chain shown (N, C = ends). Roman numbers before positions name the chains, in order. [ ]: non-standard residue; d: D form. Actinocin(9to1) = Cc1c2oc3c(C)ccc(C(=O)[*:1])c3nc-2c(C(=O)[*:2])c(N)c1=O; NMeV = CN[C@H](C(=O)O)C(C)C; Sar = CNCC(=O)O

Columns and labels:
Type in all cases: cell-based
[1] = tested on: MCF-7 cells; test: Cytotoxic assay, Adriamycin in sensitive human breast carcinoma MCF-7 cells; details: MCF-7 (sensitive); ADR; no chemosensitizer; 2880 min
Protocol: (§1) Cell Culture: HCT116/VM46 cells were selected from human colon carcinoma HCT116 cell line for resistance to VM26 and MCF-7/ADR cells were selected from human breast carcinoma MCF-7 cell line for resistance to Adriamycin. […] The cell lines were grown in tissue culture flasks containing McCoy's A medium and 10% fetal bovine serum. Cells were maintained at 37° C. in a humidified atmosphere containing 5% CO2 and subcultured every 5 days.
(§2) Cytotoxic Assay: The cells were seeded in 96 well microtiter plates at 5×10^3 cells per well and allowed to grow for 24 hours at 37° C. Cells were then incubated with decreasing amounts of antitumor agents: Adriamycin (100 μM, maximal concentration) or actinomycin D (17.6 ng/ml), for MCF-7 and HCT-116 cells, respectively. Chemosensitizers were added at variable concentrations ranging from 0.08 μM to 40 μM. In parallel, verapamil was used as positive control at the same concentrations. After 48 hours of incubation, the cells were washed, fixed and stained with crystal violet. Absorbance was read by Molecular Devices' microtiter plate reader at the wavelength of 595nm. The IC50 value (50% inhibition of cell growth) was determined from relative survival rates resulted from two to three independent experiments. […]

[2] = tested on: MCF-7/ADR cells; test: Cytotoxic assay, MDR reversing effects of chemosensitizers with Adriamycin in human breast carcinoma MCF-7 resistant cells; details: for Fold Resistance: ADR; for IC50: read-out: ADR IC50
Protocol: as §1
(§3) Cytotoxic Assay: The cells were seeded in 96 well microtiter plates at 5×10^3 cells per well and allowed to grow for 24 hours at 37° C. Cells were then incubated with decreasing amounts of antitumor agents: Adriamycin (100 μM, maximal concentration) or actinomycin D (17.6 ng/ml), for MCF-7 and HCT-116 cells, respectively. Chemosensitizers were added at variable concentrations ranging from 0.08 μM to 40 μM. In parallel, verapamil was used as positive control at the same concentrations. After 48 hours of incubation, the cells were washed, fixed and stained with crystal violet. Absorbance was read by Molecular Devices' microtiter plate reader at the wavelength of 595nm. The IC50 value (50% inhibition of cell growth) was determined from relative survival rates resulted from two to three independent experiments. The term "fold resistance" was defined as the ratio of the IC50 for antitumor drug in the presence or absence of chemosensitizer in resistant cells divided by the IC50 for antitumor drug in its sensitive counterpart. This value provides an estimate of the apparent potency of each reversing agent in enhancing drug effect.

[3] = tested on: HCT116 cells; test: Cytotoxic assay, actinomycin D in sensitive human colon carcinoma HCT116 cells; details: no chemosensitizer
Protocol: as §1, §2

[4] = tested on: HCT-116/VM46 cells; test: Cytotoxic assay, MDR reversing effects of chemosensitizers with actinomycin D in human colon carcinoma HCT-116 resistant cells; details: for Fold Resistance: ActD; for ActD IC50: 48 hours
Protocol: as §1, §3

[5] = chemosensitizer 0.4 μM, IC50 ratio to sensitive HCT116

**Q.** Which “Fold Resistance” value [1] does the source give for `COc1cccc2c1C(=O)c1c(O)c3c(c(O)c1C2=O)C[C@@](O)(C(=O)CO)C[C@@H]3O[C@H]1C[C@H](N)[C@H](O)[C@H](C)O1` [ADR, reference compound] here?
**A.** The value was 1.

**Q.** What about the “Fold Resistance” value ([2]; no chemosensitizer, IC50 ratio to sensitive MCF-7, 2880 min) of the same molecule?
**A.** The value was 138.9.

**Q.** And the IC50 ([2]; Homo sapiens, 48 h)?
**A.** The IC50 was 50 µM.

**Q.** What does the source list for `Cc1c2oc3c(C)ccc(C(=O)N[C@@H]4C(=O)N[C@H](C(C)C)C(=O)N5CCC[C@H]5C(=O)N(C)CC(=O)N(C)[C@@H](C(C)C)C(=O)O[C@@H]4C)c3nc-2c(C(=O)N[C@@H]2C(=O)N[C@H](C(C)C)C(=O)N3CCC[C@H]3C(=O)N(C)CC(=O)N(C)[C@@H](C(C)C)C(=O)O[C@@H]2C)c(N)c1=O` [ActD, reference compound] (I: T[dV]P[Sar][NMeV] / II: T[dV]P[Sar][NMeV]; ester I:1-I:C, II:1-II:C; linker I:N-II:N via Actinocin(9to1))?
**A.** Fold Resistance ([3]; ActD, 2880 min): 1.0; ActD IC50 ([3]; 48 hours): 0.5 ng/mL; Fold Resistance ([4]; no chemosensitizer, IC50 ratio to sensitive HCT116, 2880 min, 2880 min): 15.6 and 20.0

**Q.** What does the source list for `CCN(CC)CCN1C(=O)c2cc(Cl)c(NC(=O)C(C)C)cc2Oc2cc(C(F)(F)F)ccc21` [Ii, N-[2-Chloro-10,11-dihydro-10-[2-(diethylamino)ethyl-11-oxo-7-(trifluoromethyl)dibenz[b.f]1,4]oxezpin-3-yl]-2-methylpropionamide]?
**A.** Fold Resistance ([2]; chemosensitizer 0.67 μM, IC50 ratio to sensitive MCF-7): 28.9; IC50 ([2]; chemosensitizer 0.67 μM, 48 hours): 10.4 µM; Fold Resistance [4, 5]: 3.4; ActD IC50 ([4]; chemosensitizer 0.4 μM): 1.7 ng/mL

**Q.** How did the “Fold Resistance” value [4, 5] turn out when `C=C(CC)C(=O)c1ccc(OCC(=O)Nc2cc3c(cc2Cl)C(=O)N(CCN(CC)CC)c2ccc(C(F)(F)F)cc2O3)c(Cl)c1Cl` [Io] was run?
**A.** The value was 3.6.

**Q.** What about the “ActD IC50” value ([4]; chemosensitizer 0.4 μM) of the same molecule?
**A.** The value was 1.8 ng/mL.

**Q.** For `CCN(CC)CCN1C(=O)c2cc(Cl)c(NC(=O)C3CCCC3)cc2Oc2cc(C(F)(F)F)ccc21` [Ip], which “Fold Resistance” value ([4]; chemosensitizer 0.24 μM, IC50 ratio to sensitive HCT116) is on record?
**A.** The value was 3.4.

**Q.** What about the “ActD IC50” value ([4]; chemosensitizer 0.24 μM) of the same molecule?
**A.** The value was 1.7 ng/mL.
